Earlier results in patent US20080114067A1, “Composition for Recovery From or Prevention of Central Nervous System Fatigue” (priority 2005, published 2008).

Tested on: human placental cell
Settings: placental brush border tissue

| SMILES | suppression of uptake of tryptophan |
| --- | --- |
| N[C@@H](CS)C(=O)O [L-cysteine] | could be suppressed |
| CC(C)C[C@H](N)C(=O)O [L-leucine] | could be suppressed |
| CSCC[C@H](N)C(=O)O [L-methionine] | could be suppressed |
| N[C@@H](Cc1ccccc1)C(=O)O [L-phenylalanine] | could be suppressed |
| CC(C)[C@H](N)C(=O)O [L-valine] | could be suppressed |
